The values below come from ChEMBL document CHEMBL1138219 (J Med Chem, 2006).

Format in all cases: cell-based
A short description of series [1]: Cytotoxicity against human SN12C cell line. Conditions: SN12C cells.
Series [2] is described as follows: Cytotoxicity against human OVCAR-3 cell line. Conditions: OVCAR-3 cells.
Series [3] can be described thus: Cytotoxicity against human DU145 cell line. Conditions: DU-145 cells.
The nature of series [4]: Cytotoxicity against human HOP62 cell line. Conditions: HOP-62 cells.
Series [5] in a line: Cytotoxicity against human HCT116 cell line. Conditions: HCT-116 cells.
A short description of series [6]: Cytotoxicity against human SF539 cell line. Conditions: SF-539 cells.
Series [7] can be described thus: Cytotoxicity against human MDA-MB-435 cell line. Conditions: MDA-MB-435 cells.
Series [8] can be described thus: Cytotoxicity against human UACC62 cell line. Conditions: UACC-62 cells.

Structures are written as SMILES. Some results are limits rather than exact numbers.

For the compound `COc1cc2c(c(OC)c1OC)C(=O)c1c-2n(CCCN=[N+]=[N-])c(=O)c2cc([N+](=O)[O-])ccc12`, the 50% growth inhibitory concentration (GI50) – broadly, the concentration giving 50% growth inhibition – is more than 100 µM in series [1]; more than 100 µM in series [2]; more than 100 µM in series [3]; 30.9 µM in series [4]; 36.3 µM in series [5]; 38.9 µM in series [6]. The 50% growth inhibitory concentration (GI50) is more than 100 µM in series [7] and 39.8 µM in series [8].

Turning to `COc1ccc2c(c1)C(=O)c1c-2n(CCCCl)c(=O)c2cc([N+](=O)[O-])ccc12`, the GI50 was less than 0.01 µM in series [1]; 3.39 µM in series [2]; 0.036 µM in series [3]; 0.295 µM in series [4]; 0.794 µM in series [5]; 0.027 µM in series [6]. Further, the GI50 in series [7] was 3.24 µM; in series [8] it was less than 0.01 µM.

As for `COc1cc2c(cc1OC)-c1c(c3ccc([N+](=O)[O-])cc3c(=O)n1CCCN=[N+]=[N-])C2=O`, the 50% growth inhibitory concentration (GI50) is 46.8 µM in series [1]; more than 100 µM in series [2]; 87.1 µM in series [3]; 29.5 µM in series [4]; 31.6 µM in series [5]; 36.3 µM in series [6]. Also, the GI50 in series [7] is more than 100 µM; in series [8], 51.3 µM.

On to `COc1cc2c(cc1OC)-c1c(c3ccc([N+](=O)[O-])cc3c(=O)n1CCCN)C2=O`, for which the 50% growth inhibitory concentration (GI50) in series [1] came to 0.851 µM; in series [2] it was 8.13 µM; in series [3] it was 0.676 µM; in series [4] it was 1.55 µM; in series [5], 0.589 µM; in series [6], 0.005 µM. Further, the 50% growth inhibitory concentration (GI50) stood at 6.46 µM in series [7] and 2.51 µM in series [8].

With `COc1cc2c(c(OC)c1OC)-c1c(c3ccc([N+](=O)[O-])cc3c(=O)n1CCCN=[N+]=[N-])C2=O`, the GI50 in series [1] turned out to be 30.2 µM; in series [2], 45.7 µM; in series [3], 70.8 µM; in series [4] it was 15.5 µM; in series [5], 14.1 µM; in series [6], 13.5 µM. In addition, the GI50 in series [7] is more than 100 µM; in series [8], 32.4 µM.

Turning to `COc1ccc2c(c1)C(=O)c1c-2n(CCCN=[N+]=[N-])c(=O)c2cc([N+](=O)[O-])ccc12`, the concentration for 50% growth inhibition (GI50) in series [2] is 0.155 µM; in series [3] it was less than 0.001 µM; in series [4] it was less than 0.001 µM; in series [5] it was less than 0.001 µM; in series [6], less than 0.001 µM; in series [7] it was 0.251 µM.

Consider `COc1cc2c(c(OC)c1OC)C(=O)c1c-2n(CCCN)c(=O)c2cc([N+](=O)[O-])ccc12`, for which the GI50 in series [1] was 2.09 µM; in series [2] it was 1.05 µM; in series [3], 1.15 µM; in series [4] it was 0.676 µM; in series [5], 0.138 µM; in series [6], 1.35 µM. The GI50 in series [7] stood at 1.07 µM; in series [8], 6.61 µM.

For `COc1cc2c(c(OC)c1OC)-c1c(c3ccc([N+](=O)[O-])cc3c(=O)n1CCCBr)C2=O`, the GI50 is 19.5 µM in series [1]; more than 100 µM in series [2]; 15.8 µM in series [4]; 18.6 µM in series [5]; 4.47 µM in series [6]; more than 100 µM in series [7]. This compound also displayed a GI50 in series [8] of 30 µM.

Turning to `COc1ccc2c(c1OC)-c1c(c3ccc([N+](=O)[O-])cc3c(=O)n1CCCBr)C2=O`, the GI50 in series [1] was 36.3 µM; in series [2], more than 100 µM; in series [4] it was 21.9 µM; in series [5], 19.1 µM; in series [8], 18.2 µM.

As for `NCCCn1c2c(c3ccc([N+](=O)[O-])cc3c1=O)C(=O)c1cc3c(cc1-2)OCO3`, the concentration for 50% growth inhibition (GI50) in series [1] was less than 0.01 µM; in series [2] it was 0.302 µM; in series [3], less than 0.01 µM; in series [4], less than 0.01 µM; in series [5] it was less than 0.01 µM; in series [6] it was less than 0.01 µM. The GI50 in series [7] was 0.025 µM; in series [8] it was 0.017 µM.

Consider `COc1cccc2c1-c1c(c3ccc([N+](=O)[O-])cc3c(=O)n1CCCCl)C2=O`, for which the concentration for 50% growth inhibition (GI50) in series [1] came to 15.8 µM; in series [2] it was 50.1 µM; in series [4], 5.5 µM; in series [5], 2.45 µM; in series [7], 50.1 µM; in series [8], 2.4 µM.

As to `COc1cc2c(c(OC)c1OC)-c1c(c3ccc([N+](=O)[O-])cc3c(=O)n1CCCN)C2=O`, the GI50 in series [1] was 3.98 µM; in series [2], 10.7 µM; in series [3] it was 7.24 µM; in series [4] it was 0.933 µM; in series [5], 0.832 µM; in series [6], 1.38 µM. The GI50 in series [7] stood at 0.871 µM; in series [8], 9.12 µM.

As to `COc1ccc2c(c1)C(=O)c1c-2n(CCCN)c(=O)c2cc([N+](=O)[O-])ccc12`, the GI50 in series [1], in series [4], in series [5], in series [6] and in series [8] was less than 0.01 µM in each case.

Consider `COc1cc2c(cc1OC)-c1c(c3ccc([N+](=O)[O-])cc3c(=O)n1CCCBr)C2=O`, for which the concentration for 50% growth inhibition (GI50) in series [1] was determined as 4.27 µM; in series [2] it was 70.8 µM; in series [3], 24.5 µM; in series [4] it was 20.9 µM; in series [5], 4.27 µM; in series [6], 10.5 µM. Besides, the concentration for 50% growth inhibition (GI50) was 25.1 µM in series [7] and 2.82 µM in series [8].

Regarding `COc1ccc2c(c1OC)-c1c(c3ccc([N+](=O)[O-])cc3c(=O)n1CCCN=[N+]=[N-])C2=O`, the 50% growth inhibitory concentration (GI50) in series [1] is 11.5 µM; in series [2] it was 56.2 µM; in series [3], 4.9 µM; in series [4], 5.01 µM; in series [5], 2.95 µM; in series [6] it was 5.24 µM. Also, the GI50 in series [7] is 72.4 µM; in series [8], 4.57 µM.

Turning to `COc1ccc2c(c1OC)-c1c(c3ccc([N+](=O)[O-])cc3c(=O)n1CCCN)C2=O`, the concentration for 50% growth inhibition (GI50) amounted to 0.977 µM in series [1]; 14.1 µM in series [2]; 0.832 µM in series [3]; 8.32 µM in series [4]; 1.51 µM in series [5]; 1.35 µM in series [6]. Moreover, the GI50 in series [7] came out at 9.12 µM; in series [8], 1.1 µM.

Take `COc1cc2c(c(OC)c1OC)C(=O)[C@@H]1c3ccc([N+](=O)[O-])cc3C(=O)N(CCCBr)[C@H]21` (relative stereo): the GI50 in series [1] is 0.257 µM; in series [2], less than 0.01 µM; in series [3], 1.02 µM; in series [4], less than 0.01 µM; in series [5], less than 0.01 µM; in series [6], 0.468 µM. For the same compound, the GI50 in series [7] and in series [8] was less than 0.01 µM each time.

Take `COc1cc2c(cc1OC)[C@@H]1[C@H](C2=O)c2ccc([N+](=O)[O-])cc2C(=O)N1CCCBr` (relative stereo): the GI50 in series [1] turned out to be 7.59 µM; in series [2] it was 2.04 µM; in series [3], 14.5 µM; in series [4], 13.8 µM; in series [5], 4.57 µM; in series [6], 11.7 µM. The 50% growth inhibitory concentration (GI50) in series [7] was 2.82 µM; in series [8], more than 100 µM.
